The target in assay [1] is T1, MOD-1 (Caenorhabditis elegans, UniProt Q9GQ00). In words: cell-based.
Assay [2] deals with T1, MOD-1. The assay can be described thus: whole-cell patch clamp in BOSC-23 cells, preincubation; weak partial reduction of 5-HT peak current at […]. It is filed as cell-based.
For assay [3], the target named is T1, MOD-1. In words: whole-cell patch clamp in BOSC-23 cells, inhibition of […] 5-HT currents after […] s preincubation. Format: cell-based.
Assay [4] deals with T1, MOD-1. The assay can be described thus: whole-cell patch clamp of homomeric MOD-1 expressed in BOSC-23 cells, agonist concentration-response (efficacy about […]). Format: cell-based.

Drawing on article PMC9471462, “The nematode serotonin-gated chloride channel MOD-1: A novel target for anthelmintic therapy” (The Journal of Biological Chemistry, 2022), this text covers IC50, inhibition and EC50 for 4 compounds.

T1 sequence (Q9GQ00 21-489): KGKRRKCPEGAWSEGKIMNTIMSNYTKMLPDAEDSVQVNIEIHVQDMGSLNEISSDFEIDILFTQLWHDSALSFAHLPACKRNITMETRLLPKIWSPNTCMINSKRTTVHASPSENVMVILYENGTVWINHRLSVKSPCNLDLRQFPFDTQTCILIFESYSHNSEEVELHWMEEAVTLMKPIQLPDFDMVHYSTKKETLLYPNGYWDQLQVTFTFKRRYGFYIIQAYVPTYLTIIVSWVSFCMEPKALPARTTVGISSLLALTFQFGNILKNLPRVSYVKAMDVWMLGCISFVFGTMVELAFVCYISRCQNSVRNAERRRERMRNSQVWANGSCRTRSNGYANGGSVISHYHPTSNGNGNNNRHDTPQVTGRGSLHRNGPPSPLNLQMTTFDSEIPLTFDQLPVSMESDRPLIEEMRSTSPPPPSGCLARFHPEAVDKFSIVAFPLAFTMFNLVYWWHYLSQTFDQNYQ

In turn, `C1CNCCN1` [PZE, piperazine] showed an IC50 on MOD-1 [1] of 113 ± 29 µM.
At MOD-1 [2], `O=C(O)C1=CCNCC1` [isoguvacine] showed an inhibition at 1000 µM of 23 ± 14%.
For `NCc1cc(=O)[nH]o1` [muscimol], on MOD-1 [3], the half-inhibitory concentration (IC50) worked out at 249 ± 160 µM.
In turn, `NCCc1c[nH]c2ccccc12` [Tryp, tryptamine] returned an EC50 on MOD-1 [4] of 47 ± 11 µM.
